Measured values: publication PMC2810717 (Biochemistry, 2010)

Legend:
[1] = molecular target: T1, spermine oxidase (SMO) (Homo sapiens, UniProt Q9NWM0); assay: biochemical
[2] = molecular target: T1, spermine oxidase (SMO); format: biochemical

T1 sequence (Q9NWM0 whole entry): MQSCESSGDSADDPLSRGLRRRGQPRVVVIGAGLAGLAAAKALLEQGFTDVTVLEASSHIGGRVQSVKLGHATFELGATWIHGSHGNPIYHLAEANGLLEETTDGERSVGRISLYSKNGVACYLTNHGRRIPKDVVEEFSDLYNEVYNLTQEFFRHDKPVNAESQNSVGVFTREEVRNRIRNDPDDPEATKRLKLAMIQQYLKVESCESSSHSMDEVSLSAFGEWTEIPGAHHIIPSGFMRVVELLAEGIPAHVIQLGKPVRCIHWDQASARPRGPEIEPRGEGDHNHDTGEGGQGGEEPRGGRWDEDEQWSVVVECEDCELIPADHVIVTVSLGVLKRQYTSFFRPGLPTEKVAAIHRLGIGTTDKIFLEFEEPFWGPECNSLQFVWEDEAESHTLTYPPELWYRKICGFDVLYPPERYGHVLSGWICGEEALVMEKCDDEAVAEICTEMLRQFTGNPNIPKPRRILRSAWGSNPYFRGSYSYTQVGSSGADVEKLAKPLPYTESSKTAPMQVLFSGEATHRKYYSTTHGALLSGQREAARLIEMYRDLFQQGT

SMILES | Kd [1] [µM] | Ki [2] [µM]
NCCCNCCCCNCCCN [spermine] | 48 ± 8.2 | –
c1ccc(CNCCCCNCc2ccccc2)cc1 [DBDB, N,N’-dibenzylbutane-1,4-diamine] | – | 320 ± 80
NCCCCNCCCN [spermidine] | – | 550 ± 20
